Experiments:
[1] = biological target: M2 WT; conditions: only binding curve recorded; upper limit of the true Kd; cited from earlier work
[2] = biological target: Udorn M2 WT (Influenza A virus, UniProt P0DOF5); assay: two-electrode voltage clamp electrophysiological; format: binding, influenza A virus A/Udorn/72; conditions: amantadine vs rimantadine
Sequence of Udorn M2 WT (P0DOF5 whole entry, looked up): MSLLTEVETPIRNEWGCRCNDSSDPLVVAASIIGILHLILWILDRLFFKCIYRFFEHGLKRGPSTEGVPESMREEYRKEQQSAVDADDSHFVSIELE

SMILES | Kd [1] [µM] | binding affinity to Udorn M2 WT weaker than rimantadine [2]
CC(N)C12CC3CC(CC(C3)C1)C2 (racemic) [rimantadine (racemic), rimantadine] | 7 | 
C[C@H](N)C12CC3CC(CC(C3)C1)C2 [(S)-rimantadine] | 3.9 | 
NC12CC3CC(CC(C3)C1)C2 [amantadine] |  | about 10 fold
